Source: patent US20190169564A1, “METHODS OF CULTURING MICROORGANISMS IN NON-AXENIC MIXOTROPHIC CONDITIONS” (HELIAE DEVELOPMENT, LLC, priority 2012, published 2019)

Columns and labels:
Chlorella = assay: Mixotrophic Chlorella culture in bubbled column reactor with pH-auxostat, comparison of organic carbon sources
contaminating bacteria = assay: Treatment of bacterial contamination in outdoor raceway pond mixotrophic Chlorella culture (flow cytometry); type: cell-based
Procedure: Contamination observation (400×, 1000× oil immersion-phase contrast micrograph and cell cytometry with bacterial dying) was performed every 2 days, including a measurement of bacterial contamination by flow cytometry. For bacterial contamination measurement, to each 1 ml sample, 1 μl BacLight™ Green bacterial stain (Invitrogen, Eugene, Oreg., USA) as added, and samples were incubated at room temperature in the dark for 30 to 60 minutes. After incubation, samples were analyzed on a BD FACSAria™ (BD Biosciences, San Jose, Calif., USA) and populations of bacteria and algae were gated based on BacLight™ fluorescence and chlorophyll autofluoresence.
Chlorella sp. SNL333 was grown in a mixotrophic system in the pond raceway systems described above in Example 4. The area of the raceway photobioreactor was 5.6 m^2 with an operating volume of 568 L at a depth of […]. One unit was mixed with a pump (Reactor 1), and the other via a paddle wheel (Reactor 2). Air was delivered to the paddle wheel system via an air stone. Air was delivered to the pumped reactor via a venturi injection system. […] The nitrate level in the modified BG-11 recipe consisted of 400 mg/L, and was determined via the nitrate consumption rates from previous trials. […]
Referring to FIG. 28, the percentage of bacteria to Chlorella in the mixotrophic cultures was quantified using the procedure discussed in the previous examples. […]

Chlorella sp. SNL333 = assay: Yield of raceway pond mixotrophic Chlorella culture after contamination treatment; type: cell-based
Procedure: Chlorella sp. SNL333 was grown in a mixotrophic system in the pond raceway systems described above in Example 4. The area of the raceway photobioreactor was 5.6 m^2 with an operating volume of 568 L at a depth of 15 cm. One unit was mixed with a pump (Reactor 1), and the other via a paddle wheel (Reactor 2). Air was delivered to the paddle wheel system via an air stone. Air was delivered to the pumped reactor via a venturi injection system. Eductors were used in the pumped reactor to increase water velocity and enhance oxygen transfer of the liquid medium. […] The nitrate level in the modified BG-11 recipe consisted of 400 mg/L, and was determined via the nitrate consumption rates from previous trials.
Nitrate levels were adjusted towards the end of the trial to maintain residual nitrate in the system (400 mg/L). Harvests occurred daily throughout the trials. Harvest consisted of 50% of the culture volume daily, with an 80% harvest occurring on day 7. The total trial lasted 12 days for Reactor 1 and 10 days for Reactor 2.
Treatments to control the bacterial population occurred at the time indicated by the vertical dashed line. Reactor 1 received an ozone treatment, and Reactor 2 received an antibiotic treatment. At 190 hours the make-up water for refilling the system was sterilized by chlorination prior to being added to the culture. […]

Procedure for E. coli: 200 ml of bacteria inoculum from a bacteria contaminated photobioreactor was added to 200 ml of BG-11 culture medium. The solution was split in half, with the first solution receiving 6.84 g of glucose and the second solution receiving 5 g of sodium acetate. The pH and optical density of both solutions was taken. The two solutions were each split into three groups of three separate 100 ml volumes, for a control, 10 mMH2O2, and 20 mMH2O2 treatments. Each volume had 2.092 g of MOPS buffer (Sigma Chemical St. Louis, Mo.), and then placed in an incubator set at 27° C., 96 rpm, and 100 μmol/m^2 s of LED light. The volumes were incubated overnight, then brought to a pH of 7.5 using 10 M NaOH and optical density was measured. The treatments of 10 mM H2O2 and 20 mM H2O2 were then added and incubated for 24 h. Optical density and pH were then measured, and methionine was added to one volume of each treatment. Optical density and pH were measured again on the third day and the sixth day before microscope analysis on the sixth day.
The bacteria cultures in glucose and sodium acetate were treated with 0 mM H2O2 (control), 1 mM H2O2, 2.5 mM H2O2, and 5 mM H2O2.

CC(=O)O [Acetic Acid, acetic acid]
Mixotrophic Chlorella Daily Productivity (Chlorella; Day 1, organic carbon source fed by pH-auxostat, 25° C., 24 hour photoperiod): 1.04 g/L day | Mixotrophic Chlorella Daily Productivity (Chlorella; Day 2): 1.21 g/L day | Mixotrophic Chlorella Daily Productivity (Chlorella; Day 3): 1.27 g/L day | Mixotrophic Chlorella Daily Productivity (Chlorella; Day 4): 1.97 g/L day | Mixotrophic Chlorella Daily Productivity (Chlorella; Day 5): 1.40 g/L day

OO [H2O2, hydrogen peroxide]
effect on growth of bacteria cultures (E. coli; 10 mM and 20 mM H2O2, glucose and acetate mediums, 20 mM greater effect than 10 mM): negatively affected the growth of bacteria cultures in both glucose and acetate mediums | inhibitory effect on growth of the bacteria versus H2O2 concentration (E. coli; 1, 2.5 and 5 mM H2O2, one time treatment, glucose and sodium acetate cultures, growth eventually recovers): inhibitory effect on the growth of the bacteria increased

O=[O+][O-] [ozone]
percentage of bacteria to Chlorella after treatment (contaminating bacteria; after the treatment (ozone 0.10-0.20 mg/L for 17 h; antibiotic mix of Table 4)): 1.4% | percentage of bacteria to Chlorella before treatment (contaminating bacteria; before the treatment): 6.5% | average yield for the three days after the treatment (Chlorella sp. SNL333): 105 g/m^2 d
